The record followed here is US20030224470A1, “Method of diagnosing statin myopathy” (priority 2002, published 2003).

Where only a bound is given, the exact number is not on record here.

A short description of data set [1]: Muscular strength tests: hip abduction and flexion, Nicholas Manual Muscle Tester. Format: in vivo, patients. The source says:
(§1) The association of increased levels of 3MGA with statin myopathy was discovered in a study of four patients identified among the first 20 patients randomly assigned in an ongoing, unfunded, doubleblinded, crossover clinical trial that had been approved by an investigational review board. Patients who had muscle symptoms during statin therapy that resolved when they were not receiving statins for 2 weeks were recruited from a clinical research group. Eligible patients had to have normal creatine kinase levels while they were experiencing symptoms. End points were 1) whether patients could accurately identify blinded statin therapy, 2) standard measures of functional capacity and muscle strength, 3) standard measures of biochemical properties of blood, urine and muscle specimens and 4) analysis of muscle biopsy for pathology. The muscular strength tests during both placebo use and statin therapy included hip abduction and flexion measured by Nicholas Manual Muscle Tester (Lafayette Instrument Co., Lafayette, Ind.) The standard measures for biochemical alterations included blood, urine and muscle biopsy analysis for levels of endogenous factors and drug. Analysis of muscle biopsy for pathology included general histology of the samples and detection of various markers involved in metabolism.

Data set [2] in a line: Serum creatine kinase level during statin therapy. Format: in vivo, patients. The note with it: normal range 0-3.26 μkat/L.
Text: as §1
The creatine kinase level remained normal in these patients every time they became myopathic both before and during the trial. The presence of a normal creatine kinase level has previously been used to argue against myopathy in patients with muscle symptoms during statin therapy.

Data set [3] in a line: Urine organic acid analysis for 3-methylglutaconic acid (3MGA). Format: in vivo, patients.
The nature of data set [4]: Clinical muscle symptoms during statin therapy. Format: in vivo, patients.
Text: as §1

A short description of a further data set: Statin level in patients. Format: in vivo.
Text: as §1
All four patients in the study had normal statin levels (TABLE 1).

Data set [5] in a line: Muscle biopsy pathology (histology, metabolic markers). Format: in vivo, patients. The settings on record: Patient 3; during atorvastatin therapy.
Text: as §1, with “metabolism. […]” for “metabolism.”

Setting [6] is: Patient 1, Cerivistatin 0.4 mg/d listed first.
Where [7] appears, read: Patient 2, lovastatin 40 mg/d, simvastatin added to niacin.
Setting [8] is: Patient 3, Atorvastatin 20 mg/d.
Setting [9] is: Patient 4, atorvastatin 10 mg/d.
[10] abbreviates: Patient 1, 4 years of simvastatin therapy, brief trial of atorvastatin.

With `COCc1c(C(C)C)nc(C(C)C)c(/C=C/[C@@H](O)C[C@@H](O)CC(=O)O)c1-c1ccc(F)cc1` [Cerivistatin], in data set [1] (setting [6]), the “Hip Abduction (Strength) On Statin” value is recorded as 4.1 kg and the “Hip Flexion (Strength) On Statin” value is on record as 8.0 kg. Besides, in data set [2] (Patient 1), the “Creatine Kinase Level during Statin Therapy” value is recorded as 0.63 μkat/L. The “3-Methylglutaconic acid levels On Statin” value in data set [3] (Patient 1, normal range 0-9 mmol/mol creatinine) turned out to be 21 mmol/mol.

Consider `CC[C@H](C)C(=O)O[C@H]1C[C@@H](C)C=C2C=C[C@H](C)[C@H](CC[C@@H]3C[C@@H](O)CC(=O)O3)[C@H]21` [lovastatin], for which the “Muscle symptoms during therapy” value in data set [4] (setting [7]) is “muscle pains and weakness”.

In the case of `CC(C)c1c(C(=O)Nc2ccccc2)c(-c2ccccc2)c(-c2ccc(F)cc2)n1CC[C@@H](O)C[C@@H](O)CC(=O)O` [Atorvastatin], the “Hip Abduction (Strength) On Statin” value in data set [1] (setting [8]) is listed as 6.3 kg; in data set [1] (setting [9]) it was 12.9 kg. Also, the “Hip Flexion (Strength) On Statin” value in data set [1] (setting [8]) worked out at 14.3 kg; in data set [1] (setting [9]), 24.1 kg. Further, the “Statin Level” value in “Statin level in patients” (setting [8]) is 10.9 (Ator- ngEq/cm^3. For the same compound, the “Creatine Kinase Level during Statin Therapy” value in data set [2] (setting [8]) came out at 2.30 μkat/L; in data set [2] (Patient 4, Atorvastatin 10 mg/d), 1.39 μkat/L. In addition, in data set [5], the “Muscle biopsy findings during therapy” value is “increased lipid droplets, ragged red fibers, and cytochrome oxidase—negative muscle fibers”. The “Muscle symptoms during therapy” value in data set [4] (setting [10]) is “Symptoms did not change”; in data set [4] (Patient 3, atorvastatin 20 mg/d for 2 years), “aching and weakness of the shoulder, hip, and thigh”; in data set [4] (setting [9]) it was “leg aches when climbing stairs”. For the same compound, in data set [4] (setting [9]), the “Time to onset of leg aches” value is ≤ 2 weeks.

As to `CCC(C)(C)C(=O)O[C@H]1C[C@@H](C)C=C2C=C[C@H](C)[C@H](CC[C@@H]3C[C@@H](O)CC(=O)O3)[C@H]21` [Simvastatin], the “Hip Abduction (Strength) On Statin” value in data set [1] (Patient 2, Simvastatin 40 mg/d) was 11.6 kg. Moreover, the “Hip Flexion (Strength) On Statin” value in data set [1] (Patient 2, Simvastatin 40 mg/d) is listed as 9.6 kg. Moreover, the “Statin Level” value in “Statin level in patients” (Patient 1) was 1.4 (Sim- ngEq/cm^3; in “Statin level in patients” (Patient 2, Simvastatin 40 mg/d) it was 16.3 (Sim- ngEq/cm^3. In data set [2] (Patient 2, Simvastatin 40 mg/d), the “Creatine Kinase Level during Statin Therapy” value is reported as 0.73 μkat/L. Further, in data set [3] (Patient 2, Simvastatin 40 mg/d, normal range 0-9 mmol/mol creatinine), the “3-Methylglutaconic acid levels On Statin” value is 11 mmol/mol. The “Muscle symptoms during therapy” value in data set [4] (setting [10]) is “muscle aches and decreased exercise tolerance”; in data set [4] (setting [7]), “muscle aches, weakness, and shortness of breath with exertion”.
